US20110028566A1, “COMPOSITIONS AND PRODUCTS CONTAINING CYCLOALIPHATIC DIOL ANTIMICROBIAL AGENTS AND METHODS OF USING THE COMPOSITIONS AND PRODUCTS” (EASTMAN CHEMICAL COMPANY, priority 2009, published 2011)
Entries after “also recorded” stand apart in the source; their conditions may differ.

How the values were obtained:
[1] = Solubility in aqueous growth media; assay type: physicochemical
Text: Final results have been summarized below in Table 59.

[2] = test system: panel of five strains of microorganisms; experiment: MIC comparison of 1,1- and 1,4-CHDM (Example 6), statements over the panel; assay type: cell-based; conditions: MIC at 24, 48 and 72 hours
Procedure: The antimicrobial activities of 1,4-cyclohexanedimethanol (1,4-CHDM) and 1,1-cyclohexanedimethanol (1,1-CHDM) have been determined. […] MICs were individually calculated for three consecutive days with both 1,1-cyclohexanedimethanol and the 31% cis:69% trans mixture of 1,4-cyclohexanedimethanol. Both compounds were evaluated against a panel of five strains of microorganisms.
Strains P. aeruginosa, C. albicans, E. coli, A. niger and S. aureus were purchased from the American Type Culture Collection (Manassas, Va.). […] Absorbance measurements were taken with a TECAN GENios Pro microplate reader. […]
Each plate was covered and incubated at the appropriate temperature and turbidity as a measure of cell density was determined via absorbance measurement at 612 nm using a microplate reader. […] The raw data was exported into an Excel spreadsheet and the MIC values were determined and expressed as wt %. The absorbance of each inoculated CHDM well was retrieved by first subtracting out the average reading for each uninoculated well, then by comparison to a positive threshold to determine positive or negative status for growth. The positive threshold was calculated by multiplication of the average absorbance for the inoculated media-only wells by 0.05. The MIC was determined as the lowest test concentration resulting in all three replicate wells displaying values below the positive threshold.

[3] = test system: Staphylococcus aureus ATCC 25923; experiment: MIC determination and synergy testing (Kull synergy index), microplate; assay type: cell-based; conditions: MP: MIC alone (QB) or conc. in combination with CHDM (b), plate 166D
Procedure: (§1) The test cultures are listed in Table 7 along with the incubation temperatures used for growth and minimum inhibitory concentration (MIC) testing. […] C. albicans was cultured in Sabouraud dextrose broth (SDB) for approximately 44-52 hours for preparation of inoculum. A. niger was cultured on Sabouraud dextrose agar (SDA) for 3-4 days until there was confluent growth and visible spore formation. Spores were harvested from the SDA plates by flooding the surface of the plate with 5-10 mL of phosphate-buffered saline (PBS) and gently spreading the liquid across the surface of the plate with a sterile T-shaped plastic spreader (Copan Diagnostics) until there was a well-mixed suspension of spores. The resulting spore suspension was collected using a serological pipette and stored at 2-8° C. until use.
(§2) Inoculum concentration was determined by dilution plating of the cultures or spore suspension. A serial dilution in PBS was made to 10^−8 for the bacterial cultures or 10^−5 for the fungal cultures. Fifty or 100 μL of the final dilution was spread on two Trypticase-soy agar (TSA) plates for bacteria or two SDA plates for fungi. After 24 to 48 hours plates were counted and the concentrations used in each experiment were calculated.
(§3) The antimicrobial agents tested for synergy along with the respective diluents and working stock solution concentrations are shown below. For determination of MIC ranges, individual antimicrobial agent stock solutions were added to sterile medium to yield the highest level test concentrations, and then serially diluted in the medium to prepare the range of test concentrations. For synergy testing individual test concentrations were prepared in sterile medium, and then blended to form the desired combinations.
(§4) MICs were determined using a high-throughput microplate method. Individual antimicrobial agents were added to TSB (pH 7.3) for bacterial testing or SDB (pH 5.6) for fungal testing at the highest concentration to be tested. A serial dilution series was prepared at a dilution ratio of 1:1.3333 such that a one log range was covered in nine dilutions. Two-hundred microliters of the diluted antimicrobial agents were dispensed into four wells each of a sterile, 96-well, flat-bottom microplate (Nalge Nunc International). Four additional wells of the highest concentration were dispensed to serve as uninoculated high-level controls. Eight additional wells containing only broth medium were also prepared, four to serve as negative controls and four as positive controls. Three wells of each antimicrobial agent dilution were inoculated with one of the test strains in Table 7. The final well of each antimicrobial agent dilution was left uninoculated to serve as a control (and means of compensating) for any absorbance/turbidity due to the test compounds.
(§5) Microplates were inoculated using the cultures or spore suspensions prepared as described above. The S. aureus cultures were used undiluted, while the E. coli and P. aeruginosa cultures were used either undiluted or after a 1:2 dilution in sterile TSB. The C. albicans cultures were used either undiluted or following a 2-fold concentration by centrifugation. One of two means of inoculation was used to deliver a final concentration of approximately 10^5 colony-forming units (CFU)/mL of C. albicans, 10^5 spores/mL of A. niger, or 10^6 CFU/mL of bacteria. The primary method used a stainless steel pin replicator (Nalge Nunc International) mounted on a hand-operated bench-top press (Schmidt Technology Corporation) fitted with a custom-built microplate holder to dispense one microliter of each inoculum from a “master” plate containing 50-100 μL of culture into the wells of the test plate. The pin replicator was sterilized before and between inoculations by immersing in ethanol and flaming. The alternative method of inoculation was by directly pipetting 20 μL of a 1:20 dilution of each culture or spore suspension into the appropriate wells of the test plates.

[4] = test system: Pseudomonas aeruginosa ATCC 27853; experiment: as above; assay type: cell-based; conditions: MP: MIC alone (QB) or conc. in combination with CHDM (b); plate 146E; day 1
Procedure: as §1, §2, §3, §4, §5

[5] = test system: Aspergillus niger ATCC 16404; experiment: as above; assay type: cell-based; conditions: A. niger; plate 154C; day 3; MP and CHDM
Procedure: as §1, §2
The A. niger spore suspensions were concentrated to a level of 1-2×10^8 spores/mL by centrifugation and resuspension in a portion of the resulting supernatant.
as §3, §4
Microplates were inoculated using the cultures or spore suspensions prepared as described above. The S. aureus cultures were used undiluted, while the E. coli and P. aeruginosa cultures were used either undiluted or after a 1:2 dilution in sterile TSB. The C. albicans cultures were used either undiluted or following a 2-fold concentration by centrifugation. One of two means of inoculation was used to deliver a final concentration of approximately 10^5 colony-forming units (CFU)/mL of C. albicans, 10^5 spores/mL of A. niger, or 10^6 CFU/mL of bacteria. The primary method used a stainless steel pin replicator (Nalge Nunc International) mounted on a hand-operated bench-top press (Schmidt Technology Corporation) fitted with a custom-built microplate holder to dispense one microliter of each inoculum from a “master” plate containing 50-100 μL of culture into the wells of the test plate. The pin replicator was sterilized before and between inoculations by immersing in ethanol and flaming. […]

Aspergillus niger = experiment: Test for adequate preservation in skin cream formulation (microorganism counts); assay type: cell-based; conditions: skin cream emulsion pH 6.75; concentration in label
Procedure: (§6) A test for adequate preservation was carried out in accordance with the European Pharmacopea (6.0) and United States Pharmacopea (5.1). The testing consisted of the inoculation of a skin cream formulation serving as an emulsion substrate. The skin cream formulation having a pH of 6.75 was as follows: […]
(§7) This skin cream was the emulsion substrate, which formed the base for all further experimentation.
(§8) For Examples 3.1 through 3.10, 390.0 g cream were weighed into a 600-ml beaker. The cream was stirred at room temperature while adding the ingredients specified in Table 51. Each sample was stirred for 2 hours, then placed in the refrigerator until inoculated.
(§9) For Examples 3.11 and 3.12, 179.4 g cream were weighed into a 400-ml beaker. The cream was stirred at room temperature while adding the specified ingredients.
(§10) The samples of Examples 3.1 through 3.10 were challenged with specific organisms (see Table 51) to produce a contamination of between 1.0×10^5 cfu/g and 1.0×10^6 cfu/g. The actual inoculation counts resulting from these challenges were immediately determined by diluting in sterile buffered water and (spread plate method) plating for enumeration.
(§11) Challenge organisms were prepared in Mueller-Hinton broth, allowed to grow for 72 hours at 35° C.+/−2° C., centrifuged at 2500 rpm for 5 minutes, and the supernatant broth was removed. The microbial pellet was then re-diluted with sterile buffered water to a turbidity that matched previous 1.0×10^8 cfu/g concentrations of that organism's specific growth curve.
(§12) The test emulsions were maintained within a specific temperature range optimal for the organisms; 35° C.+/2° C. for the bacteria and 22° C.+/−2° C. for the fungi, for the first three days. They were kept at ambient room temperature for the subsequent time periods.
(§13) Subculture samples of approximately 1 gram were taken for counts at 7, 14, and 30 days and incubated under optimal conditions and nutrition for no less than 5 days. Subcultures were diluted 1:2, 1:10, 1:100, . . . , 1:10,000 and plated using the spread plate method onto Plate Count Agar and onto SAB Dextrose Agar for the Candida and Aspergillus species; and incubated as follows: 35° C.+/−2° C. for the Plate Count Agar and 22° C.+/−2° C. for the SAB Dextrose plates of Candida albicans and Aspergillus niger. Negative results were not reported before 7 days incubation, and counts were performed after no less than 5 days incubation. Because of the high viscosity of the test emulsion, at least a 1:2 dilution was required to perform the spread plate subcultures. 0-30 counts represent a 1 to 2 dilution, numbers […] a 1:10 dilution; and the rest represent dilutions of 1:100, 1:1000, or 1:10,000. […]

Candida albicans = experiment: as above; assay type: cell-based; conditions: skin cream emulsion pH 6.75; concentration in label
Procedure: as §6, §7, §8, §9, §10, §11, §12, §13

| Structure (SMILES) | Solubility [1] | Antimicrobial efficacy (MIC) compared with 1,4-CHDM (in words) [2] | Antimicrobial efficacy (MIC) compared with 1,4-CHDM (in words) ([2]; listed as 1,1-cyclohexanedimethanol) | QB/b ([3]; day 1) | QB/b ([3]; day 2) | QB/b [4] | QB/b: concentration of MP (MIC alone, or in the combination at an inhibitory concentration) [5] [weight percent] | SI (synergy index) [5] | Antimicrobial activity against Aspergillus niger in skin cream (in words) (Aspergillus niger) | Antimicrobial activity against Candida albicans in skin cream (in words) (Candida albicans) |
| --- | --- | --- | --- | --- | --- | --- | --- | --- | --- | --- |
| OCC1(CO)CCCCC1 [1,1-CHDM, 1,1-cyclohexanedimethanol] | ≤ 2.25 % (w/v) | significant improvement in efficacy over 1,4-CHDM; also recorded: lower MIC values; also recorded: improved efficacy over 1,4-CHDM | measurable increase in antimicrobial efficacy over that of 1,4-cyclohexanedimethanol; also recorded: Antimicrobial efficacy increased against four of the five test organisms |  |  |  |  |  |  |  |
| COC(=O)c1ccc(O)cc1 [MP, Methylparaben, reference compound] |  |  |  | 0.23 | 0.23 | 0.14 | 0.050 | 1.00 | not at this low concentration | not at this low concentration |
